Reference: US10131652B2, “Pyrimidinyloxy benzene derivatives as herbicides” (E. I. DU PONT DE NEMOURS AND COMPANY, priority 2014, dated 2018)

Legend:
Assay type in all cases: in vivo
[1] = test system: barnyardgrass (Echinochloa crus-galli); test: Test B pre-/postemergence plant response; conditions: 1000 g ai/ha, 0 to 100 scale (0 no effect, 100 complete control)
How it was run: (§1)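 Visual injury rating, 0 (no effect) to 100 (complete control), vs untreated controls after ~10 d greenhouse. Pre: directed soil spray after planting in loam/sand. Post: plants 2–10 cm, 1–2 leaf stage. Compound in non-phytotoxic solvent plus surfactant.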

corn (Zea mays) [2] = test: Test B pre-/postemergence plant response; conditions: Postemergence, 1000 g ai/ha; 0 to 100 scale (0 no effect, 100 complete control)
How it was run: as §1

[3] = test system: giant foxtail (Setaria faberii); test: Test B pre-/postemergence plant response; conditions: 1000 g ai/ha, 0 to 100 scale (0 no effect, 100 complete control)
How it was run: as §1

[4] = test system: pigweed (Amaranthus retroflexus); test: Test B pre-/postemergence plant response; conditions: 1000 g ai/ha, 0 to 100 scale (0 no effect, 100 complete control)
How it was run: as §1

[5] = test system: wheat (Triticum aestivum); test: Test B pre-/postemergence plant response; conditions: Postemergence, 1000 g ai/ha; 0 to 100 scale (0 no effect, 100 complete control)
How it was run: as §1

[6] = test system: Italian ryegrass (Lolium multiflorum); test: Test D pre-/postemergence plant response
How it was run: (§2)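 Pre-/post-emergence greenhouse test. Pre: seeded loam+sand, sprayed same day. Post: 1–4 leaf plants (2–18 cm), peat/vermiculite mix. Formulation: non-phytotoxic solvent + surfactant. Scored visually d13–15, 0–100 vs control.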

[7] = test system: barnyardgrass (Echinochloa crus-galli); test: Test D pre-/postemergence plant response
How it was run: as §2

[8] = test system: blackgrass (Alopecurus myosuroides); test: Test D pre-/postemergence plant response
How it was run: as §2

corn (Zea mays) [9] = test: Test D pre-/postemergence plant response
How it was run: as §2

[10] = test system: galium (catchweed bedstraw, Galium aparine); test: Test D pre-/postemergence plant response
How it was run: as §2

[11] = test system: giant foxtail (Setaria faberii); test: Test D pre-/postemergence plant response
How it was run: as §2

[12] = test system: lambsquarters (Chenopodium album); test: Test D pre-/postemergence plant response
How it was run: as §2

[13] = test system: morningglory (Ipomoea coccinea); test: Test D pre-/postemergence plant response
How it was run: as §2

[14] = test system: pigweed (Amaranthus retroflexus); test: Test D pre-/postemergence plant response
How it was run: as §2

[15] = test system: ragweed (common ragweed, Ambrosia elatior); test: Test D pre-/postemergence plant response
How it was run: as §2

[16] = test system: waterhemp (common waterhemp, Amaranthus rudis); test: Test D pre-/postemergence plant response
How it was run: as §2

[17] = Postemergence, 16 g ai/ha, scale 0 to 100 (0 no effect, 100 complete control)
[18] = Postemergence, 31 g ai/ha, scale 0 to 100 (0 no effect, 100 complete control)
[19] = Postemergence, 62 g ai/ha, scale 0 to 100, 0 no effect, 100 complete control
[20] = Postemergence, 125 g ai/ha, scale 0 to 100, 0 no effect, 100 complete control
[21] = Preemergence, 16 g ai/ha, scale 0 to 100 (0 no effect, 100 complete control)
[22] = Preemergence, 31 g ai/ha, scale 0 to 100 (0 no effect, 100 complete control)
[23] = Preemergence, 62 g ai/ha, scale 0 to 100 (0 no effect, 100 complete control)

With FCc1cc(-c2c(F)cccc2Oc2ncc(Cl)cn2)no1 [Compound 57] the “Plant response rating, Barnyardgrass” value ([1]; Postemergence) was 100, the “Plant response rating, Barnyardgrass” value ([1]; Preemergence) was 100 and the “Plant response rating, Corn” value (corn (Zea mays) [2]) was 90. The “Plant response rating, Foxtail, Giant” value ([3]; Postemergence) was 100, the “Plant response rating, Foxtail, Giant” value ([3]; Preemergence) was 100 and the “Plant response rating, Pigweed” value ([4]; Postemergence) was 100. The “Plant response rating, Pigweed” value ([4]; Preemergence) was 90, the “Plant response rating, Wheat” value [5] was 90 and the “Ryegrass, Italian plant response rating” value [6, 17] was 0. The “Ryegrass, Italian plant response rating” value [6, 18] was 0, the “Plant response rating, Ryegrass, Italian” value [6, 19] was 0 and the “Plant response rating, Ryegrass, Italian” value [6, 20] was 0. For the same compound, the “Plant response rating (scale 0 to 100), Ryegrass, Italian” value ([6]; Preemergence, 125 g ai/ha) was 50, the “Plant response rating, Ryegrass, Italian” value [6, 21] was 0 and the “Plant response rating, Ryegrass, Italian” value [6, 22] was 0. For the same compound, the “Plant response rating, Ryegrass, Italian” value [6, 23] was 5, the “Barnyardgrass plant response rating” value [7, 17] was 0 and the “Barnyardgrass plant response rating” value [7, 18] was 5. For the same compound, the “Plant response rating, Barnyardgrass” value [7, 19] was 5, the “Plant response rating, Barnyardgrass” value [7, 20] was 10 and the “Plant response rating (scale 0 to 100), Barnyardgrass” value ([7]; Preemergence, 62 g ai/ha) was 75. The “Plant response rating (scale 0 to 100), Barnyardgrass” value ([7]; Preemergence, 125 g ai/ha) was 85, the “Plant response rating, Barnyardgrass” value [7, 21] was 5 and the “Plant response rating, Barnyardgrass” value [7, 22] was 20. The “Blackgrass plant response rating” value [8, 17] was 0, the “Blackgrass plant response rating” value [8, 18] was 0 and the “Plant response rating, Blackgrass” value [8, 19] was 0. For the same compound, the “Plant response rating, Blackgrass” value [8, 20] was 15, the “Plant response rating (scale 0 to 100), Blackgrass” value ([8]; Preemergence, 125 g ai/ha) was 60 and the “Plant response rating, Blackgrass” value [8, 21] was 5. For the same compound, the “Plant response rating, Blackgrass” value [8, 22] was 5, the “Plant response rating, Blackgrass” value [8, 23] was 50 and the “Corn plant response rating” value (corn (Zea mays) [9]; [17]) was 0. The “Corn plant response rating” value (corn (Zea mays) [9]; [18]) was 5, the “Plant response rating, Corn” value (corn (Zea mays) [9]; [19]) was 5 and the “Plant response rating, Corn” value (corn (Zea mays) [9]; [20]) was 10. For the same compound, the “Plant response rating (scale 0 to 100), Corn” value (corn (Zea mays) [9]; Preemergence, 125 g ai/ha) was 30, the “Plant response rating, Corn” value (corn (Zea mays) [9]; [21]) was 0 and the “Plant response rating, Corn” value (corn (Zea mays) [9]; [22]) was 0. The “Plant response rating, Corn” value (corn (Zea mays) [9]; [23]) was 5, the “Galium plant response rating” value [10, 17] was 40 and the “Galium plant response rating” value [10, 18] was 50. The “Plant response rating, Galium” value [10, 19] was 65, the “Plant response rating, Galium” value [10, 20] was 95 and the “Plant response rating (scale 0 to 100), Galium” value ([10]; Preemergence, 125 g ai/ha) was 90. The “Plant response rating, Galium” value [10, 21] was 80, the “Plant response rating, Galium” value [10, 22] was 70 and the “Plant response rating, Galium” value [10, 23] was 90. For the same compound, the “Foxtail, Giant plant response rating” value [11, 17] was 0, the “Foxtail, Giant plant response rating” value [11, 18] was 10 and the “Plant response rating, Foxtail, Giant” value [11, 19] was 20. For the same compound, the “Plant response rating, Foxtail, Giant” value [11, 20] was 20, the “Plant response rating (scale 0 to 100), Foxtail, Giant” value ([11]; Preemergence, 125 g ai/ha) was 100 and the “Plant response rating, Foxtail, Giant” value [11, 21] was 50. For the same compound, the “Plant response rating, Foxtail, Giant” value [11, 22] was 90, the “Plant response rating, Foxtail, Giant” value [11, 23] was 100 and the “Lambsquarters plant response rating” value [12, 17] was 60. For the same compound, the “Lambsquarters plant response rating” value [12, 18] was 40, the “Plant response rating, Lambsquarters” value [12, 19] was 70 and the “Plant response rating, Lambsquarters” value [12, 20] was 80. For the same compound, the “Plant response rating (scale 0 to 100), Lambsquarters” value ([12]; Preemergence, 125 g ai/ha) was 100, the “Plant response rating, Lambsquarters” value [12, 21] was 80 and the “Plant response rating, Lambsquarters” value [12, 22] was 100. The “Plant response rating, Lambsquarters” value [12, 23] was 100, the “Morningglory plant response rating” value [13, 17] was 5 and the “Morningglory plant response rating” value [13, 18] was 45. For the same compound, the “Plant response rating, Morningglory” value [13, 19] was 45, the “Plant response rating, Morningglory” value [13, 20] was 65 and the “Plant response rating (scale 0 to 100), Morningglory” value ([13]; Preemergence, 125 g ai/ha) was 45. The “Plant response rating, Morningglory” value [13, 21] was 10, the “Plant response rating, Morningglory” value [13, 22] was 20 and the “Plant response rating, Morningglory” value [13, 23] was 35. For the same compound, the “Pigweed plant response rating” value [14, 17] was 30, the “Pigweed plant response rating” value [14, 18] was 55 and the “Plant response rating, Pigweed” value [14, 19] was 55. The “Plant response rating, Pigweed” value [14, 20] was 75, the “Plant response rating (scale 0 to 100), Pigweed” value ([14]; Preemergence, 125 g ai/ha) was 100 and the “Plant response rating, Pigweed” value [14, 21] was 75. For the same compound, the “Plant response rating, Pigweed” value [14, 22] was 85, the “Plant response rating, Pigweed” value [14, 23] was 100 and the “Ragweed plant response rating” value [15, 17] was 20. For the same compound, the “Ragweed plant response rating” value [15, 18] was 50, the “Plant response rating, Ragweed” value [15, 19] was 60 and the “Plant response rating, Ragweed” value [15, 20] was 98. For the same compound, the “Plant response rating (scale 0 to 100), Ragweed” value ([15]; Preemergence, 125 g ai/ha) was 100, the “Plant response rating, Ragweed” value [15, 21] was 25 and the “Plant response rating, Ragweed” value [15, 22] was 35. For the same compound, the “Plant response rating, Ragweed” value [15, 23] was 100, the “Waterhemp plant response rating” value [16, 17] was 60 and the “Waterhemp plant response rating” value [16, 18] was 55. For the same compound, the “Plant response rating, Waterhemp” value [16, 19] was 75, the “Plant response rating, Waterhemp” value [16, 20] was 98 and the “Plant response rating (scale 0 to 100), Waterhemp” value ([16]; Preemergence, 125 g ai/ha) was 100. For the same compound, the “Plant response rating, Waterhemp” value [16, 21] was 100, the “Plant response rating, Waterhemp” value [16, 22] was 90 and the “Plant response rating, Waterhemp” value [16, 23] was 100.
